# Data: patent US11226337B2, “Chemoproteomic profiling of protein electrophilic and oxidative post-translational modifications” (Zenagem, LLC, priority 2017, dated 2022)
# What was measured:
# Assay in all cases: SILAC RP-ABPP
# Type in all cases: cell-based
# [1] = molecular target: T1, GLB1 Betagalactosidase (P16278) (Homo sapiens, UniProt P16278); conditions: SILAC H/L
# T1 construct: shared by both the endogenous and recombinant forms of these proteins; endogenous in cells; host or cells: HEK293T and MDA-MB-231
# T1 sequence (P16278 29-677): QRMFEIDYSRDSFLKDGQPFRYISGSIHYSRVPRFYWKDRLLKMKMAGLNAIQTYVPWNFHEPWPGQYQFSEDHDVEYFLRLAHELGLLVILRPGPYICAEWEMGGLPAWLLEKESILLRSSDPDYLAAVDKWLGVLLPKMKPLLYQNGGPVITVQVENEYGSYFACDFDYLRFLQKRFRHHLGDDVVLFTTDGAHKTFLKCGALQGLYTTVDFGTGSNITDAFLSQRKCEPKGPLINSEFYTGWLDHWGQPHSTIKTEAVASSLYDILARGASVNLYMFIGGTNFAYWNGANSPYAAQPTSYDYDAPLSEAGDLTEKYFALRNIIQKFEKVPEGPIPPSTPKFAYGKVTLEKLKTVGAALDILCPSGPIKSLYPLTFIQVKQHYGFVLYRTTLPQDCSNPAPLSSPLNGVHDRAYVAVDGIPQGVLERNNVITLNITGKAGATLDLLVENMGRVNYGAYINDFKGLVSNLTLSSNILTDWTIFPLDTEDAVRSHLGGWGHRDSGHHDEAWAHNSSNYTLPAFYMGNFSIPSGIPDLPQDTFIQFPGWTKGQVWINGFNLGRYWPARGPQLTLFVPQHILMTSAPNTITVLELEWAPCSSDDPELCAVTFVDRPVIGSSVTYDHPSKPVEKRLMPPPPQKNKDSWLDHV
# [2] = molecular target: T2, GNS Nacetylglucosamine6sulfatase (P15586) (Homo sapiens, UniProt P15586); conditions: SILAC H/L, MDA-MB-231
# T2 construct: In Situ Labelling of Cells with Hydrazine Probes for MS Experiments; endogenous in cells
# T2 sequence (P15586 37-552): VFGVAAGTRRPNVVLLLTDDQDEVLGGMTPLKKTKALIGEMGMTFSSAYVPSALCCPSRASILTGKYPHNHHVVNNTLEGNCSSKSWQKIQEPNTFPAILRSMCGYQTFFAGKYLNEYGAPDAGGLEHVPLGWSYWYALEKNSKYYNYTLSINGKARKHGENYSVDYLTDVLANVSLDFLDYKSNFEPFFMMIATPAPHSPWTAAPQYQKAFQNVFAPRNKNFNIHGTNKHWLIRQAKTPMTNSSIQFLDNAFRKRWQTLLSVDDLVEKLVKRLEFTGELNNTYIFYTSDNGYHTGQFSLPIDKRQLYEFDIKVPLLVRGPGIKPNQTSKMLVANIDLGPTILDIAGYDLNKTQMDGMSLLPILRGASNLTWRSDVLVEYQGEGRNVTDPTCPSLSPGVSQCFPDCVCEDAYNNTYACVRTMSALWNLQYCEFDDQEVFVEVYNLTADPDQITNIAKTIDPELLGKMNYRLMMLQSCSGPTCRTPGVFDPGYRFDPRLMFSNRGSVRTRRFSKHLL
# [3] = molecular target: T3, GAA Lysosomal alphaglucosidase (P10253) (Homo sapiens, UniProt P10253); conditions: SILAC H/L, MDA-MB-231
# T3 construct: In Situ Labelling of Cells with Hydrazine Probes for MS Experiments; endogenous in cells
SMILES,"enrichment ratioavg ([1]; probe 1 3 mM 0.5 h vs probe 3, HEK293T)","competition ratioavg ([1]; probe 1 vs probe 1+10x probe 3, HEK293T)",enrichment ratioavg ([2]; probe 1 3 mM 0.5 h vs probe 3),competition ratioavg ([2]; probe 1 vs probe 1+10x probe 3),enrichment ratioavg ([3]; probe 1 3 mM 0.5 h vs probe 3),competition ratioavg ([3]; probe 1 vs probe 1+10x probe 3),"enrichment ratioavg ([1]; probe 2 1 mM 0.5 h vs probe 4, MDA-MB-231)","competition ratioavg ([1]; probe 2 vs probe 2+10x probe 4, MDA-MB-231)",enrichment ratioavg ([2]; probe 2 1 mM 0.5 h vs probe 4),competition ratioavg ([2]; probe 2 vs probe 2+10x probe 4),enrichment ratioavg ([3]; probe 2 1 mM 0.5 h vs probe 4),competition ratioavg ([3]; probe 2 vs probe 2+10x probe 4)
"C#CCNN.Cl [probe 1, prop-2-yn-1-ylhydrazine hydrochloride]",12,3,10,3,9,2,–,–,–,–,–,–
"C#CCCNC(=O)c1ccc(NN)cc1.Cl [probe 2, N-(but-3-yn-1-yl)-4-hydrazinylbenzamide hydrochloride]",–,–,–,–,–,–,6,2,7,3,20,4
